Measurements from article PMC9095466 (Nature, 2022).
Several values for one entry are separate records, joined by “and”; a condition that tells them apart may be missing. Identical values can stand only once. Like-named read-outs stand apart in the source and are kept apart here.

Columns and labels:
mouse TMPRSS2 = mouse TMPRSS2 (Mus musculus, UniProt Q9JIQ8); experiment: cell-based
[1] = tested on: SARS-CoV-2 B.1.1.7 (Alpha); experiment: microbe, parasite or virus in culture; type: cell-based; conditions: UK
[2] = tested on: SARS-CoV-2 B.1.351 (Beta); experiment: microbe, parasite or virus in culture; type: cell-based; conditions: SA
SARS-CoV-2 P.1 (Gamma) = experiment: microbe, parasite or virus in culture; type: cell-based; conditions: Brazil
SARS-CoV-2 VOCs = experiment: SARS-CoV-2 VOC infection of Calu-3 cells, summary over all VOCs; type: cell-based; conditions: Severe acute respiratory syndrome coronavirus 2, range over VOCs
SARS-CoV-2 (VIDO) = experiment: microbe, parasite or virus in culture; type: cell-based; conditions: colonoids pretreated 3 h with 100 nM, infected 3 days, vs DMSO-treated
[3] = tested on: SARS-CoV-2 (USA-WA1/2020, lineage A); parameters: species or system K18-hACE2 mice; conditions: mouse, in vivo
[4] = tested on: SARS-CoV-2 (USA-WA1/2020, lineage A); experiment: K18-hACE2 mouse model of SARS-CoV-2, IHC of nucleocapsid with digital image analysis; type: in vivo, K18-hACE2 mice; conditions: for Num Positive per mm^2 (IHC) / Positive % (IHC): Lung, Figure 5 Panel G, individual animals
Procedure: To detect viral antigen, sections were labelled with anti-SARS-CoV-2 nucleocapsid protein rabbit IgG monoclonal antibody (GeneTex; GTX635679) at a 1:5,000 dilution and processed using a Leica Bond Max automated IHC stainer. Leica Bond Polymer Refine Detection (Leica; DS9800) with DAB was used as the chromogen. Image acquisition was performed using a Roche Ventana DP200 slide scanner. Digital image analysis was performed using QuPath software[65],[66] v.0.2.3. Tissues were annotated to include all available lung tissue or all brain tissue excluding cerebellum, as cerebellar tissue was not available for all mice. Following annotation, automated detection was performed using automated SLIC superpixel segmentation with a DAB mean detection threshold of 0.18892.

[5] = individual mice, 8-day regimen, tissue at death or end-point

Sequence of mouse TMPRSS2 (Q9JIQ8 whole entry): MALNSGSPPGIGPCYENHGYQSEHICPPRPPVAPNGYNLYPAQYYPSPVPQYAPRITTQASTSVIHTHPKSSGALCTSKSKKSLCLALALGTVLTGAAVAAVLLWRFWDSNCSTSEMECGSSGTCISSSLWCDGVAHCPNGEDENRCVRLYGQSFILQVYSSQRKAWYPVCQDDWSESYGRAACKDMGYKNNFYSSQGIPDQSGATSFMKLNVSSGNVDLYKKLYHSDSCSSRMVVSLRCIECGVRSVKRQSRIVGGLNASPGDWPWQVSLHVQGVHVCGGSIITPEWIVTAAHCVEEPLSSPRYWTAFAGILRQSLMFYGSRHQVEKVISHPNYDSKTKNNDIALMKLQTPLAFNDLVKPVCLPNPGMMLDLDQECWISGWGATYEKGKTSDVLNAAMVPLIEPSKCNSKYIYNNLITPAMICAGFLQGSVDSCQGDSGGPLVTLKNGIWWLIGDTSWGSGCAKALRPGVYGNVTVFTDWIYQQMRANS

`CS(=O)(=O)NC(CCC(N)=O)C(=O)NC(Cc1ccccc1)C(=O)NC(CCCNC(=N)N)C(=O)c1nc2ccccc2s1` (stereo not shown) [Compound N-0385, Ms-QFR-kbt] was tested. Which IC50 (mouse TMPRSS2; Vero E6 cells transfected with mTMPRSS2, 24 h, mean ± SD, n = 3, read-out: mouse TMPRSS2 (mTmprss2) activity IC50) did it give?
Its IC50 is 12.3 ± 1.9 nM.

And the IC50 (mouse TMPRSS2; mTMPRSS2, mean of independent experiments, Figure S1C, read-out: IC50 Mean)?
Its IC50 is 12.3 nM.

What about the IC50 (mouse TMPRSS2; mTMPRSS2, single experiments N1-N3, Figure S1C, read-out: IC50 determined from independant experiments) of the same molecule?
Its IC50 is 12.2 nM and 14.3 nM and 10.4 nM.

And the “infection, dose response Figure 3c (nucleocapsid)” value (“infection, dose response Figure 3c” below) ([1]; log [C] (nM) -0.49485)?
The value was 100.507 and 68.1892 and 93.9276 and 91.6566 and 100.

What about the “infection, dose response Figure 3d (dsRNA)” value (“infection … (dsRNA)” below) ([1]; log [C] (nM) -0.49485) of the same molecule?
The value was 68.6997 and 68.3556 and 77.9197 and 68.9 and 100.

And the “infection, dose response Figure 3c” value ([1]; log [C] (nM) -1.19382)?
The value was 96.9973 and 100 and 88.1248.

What about the “infection … (dsRNA)” value ([1]; log [C] (nM) -1.19382) of the same molecule?
The value was 83.4401 and 68.4372 and 71.2209 and 84.9067 and 100.

And the “infection, dose response Figure 3c” value ([2]; log [C] (nM) 0.20412)?
Its value is 79.6793 and 91.7767 and 88.3707 and 72.9139 and 58.6745.

And the “infection … (dsRNA)” value ([2]; log [C] (nM) 0.20412)?
The value was 63.8002 and 67.3054 and 60.7262 and 87.9301 and 97.1304.

What about the “infection, dose response Figure 3c” value ([2]; log [C] (nM) 0.90309) of the same molecule?
The value was 43.2222 and 77.2087 and 78.2089 and 72.2128 and 63.0729.

And the “infection … (dsRNA)” value ([2]; log [C] (nM) 0.90309)?
Its value is 54.6567 and 62.1742 and 66.7756 and 99.2713 and 89.1898.

What about the “infection, dose response Figure 3c” value ([2]; log [C] (nM) 1.60206) of the same molecule?
Its value is 26.0524 and 35.9809 and 32.5888 and 37.5917 and 24.568.

What about the “infection … (dsRNA)” value ([2]; log [C] (nM) 1.60206) of the same molecule?
Its value is 39.7311 and 51.7136 and 44.1381 and 59.5864 and 41.1574.

What about the “infection, dose response Figure 3c” value ([2]; log [C] (nM) -0.49485) of the same molecule?
Its value is 80.9236 and 100 and 89.9432 and 52.6441.

And the “infection … (dsRNA)” value ([2]; log [C] (nM) -0.49485)?
Its value is 76.5319 and 75.7767 and 69.4582 and 92.7897 and 93.6397.

And the “infection, dose response Figure 3c” value ([2]; log [C] (nM) -1.19382)?
Its value is 96.6594 and 91.8391 and 98.1873 and 70.3455.

What about the “infection … (dsRNA)” value ([2]; log [C] (nM) -1.19382) of the same molecule?
The value was 75.3943 and 74.8717 and 100 and 96.2799.

What about the “infection, dose response Figure 3c” value (SARS-CoV-2 P.1 (Gamma); log [C] (nM) 0.20412) of the same molecule?
Its value is 100 and 81.7088 and 65.1564.

What about the “infection … (dsRNA)” value (SARS-CoV-2 P.1 (Gamma); log [C] (nM) 0.20412) of the same molecule?
The value was 75.4607 and 65.7035 and 100 and 82.6067.

And the “infection … (dsRNA)” value (SARS-CoV-2 P.1 (Gamma); log [C] (nM) 3)?
The value was 8.633.

What about the “infection, dose response Figure 3c” value (SARS-CoV-2 P.1 (Gamma); log [C] (nM) -0.49485) of the same molecule?
The value was 100 and 84.3433.

And the “infection … (dsRNA)” value (SARS-CoV-2 P.1 (Gamma); log [C] (nM) -0.49485)?
The value was 100 and 92.9624 and 97.3601.

What about the “infection, dose response Figure 3c” value (SARS-CoV-2 P.1 (Gamma); log [C] (nM) -1.19382) of the same molecule?
The value was 91.5649 and 100 and 99.1769.

What about the “infection … (dsRNA)” value (SARS-CoV-2 P.1 (Gamma); log [C] (nM) -1.19382) of the same molecule?
The value was 98.3176 and 96.7175 and 100 and 97.435.

And the EC50 (SARS-CoV-2 VOCs; read-out: EC50 against all VOCs, dsRNA staining)?
The EC50 was 2.6 to 26.5 nM.

What about the EC50 (SARS-CoV-2 VOCs; read-out: EC50 against all VOCs, nucleocapsid staining) of the same molecule?
The EC50 was 2.1 to 13.9 nM.

And the inhibition at 0.1 µM (SARS-CoV-2 (VIDO); Severe acute respiratory syndrome coronavirus 2, read-out: inhibition of SARS-CoV-2 infection in colonoids)?
The inhibition at 0.1 µM was greater than 99%.

What about the “inhibition of SARS-CoV-2 infection in colonoids” value (SARS-CoV-2 (VIDO)) of the same molecule?
The value was “complete inhibition”.

What about the “average weight loss at 6 dpi” value [3] of the same molecule?
The value was 3%.

What about the survival [3] of the same molecule?
Its survival is 100%.

And the “survival to the end-point (14 dpi)” value [3]?
Its value is 70%.

What about the “weight gain at 6 dpi” value [3] of the same molecule?
Its value is 1%.

What about the “weight gain at time of death or the study end-point” value [3] of the same molecule?
Its value is 2%.

What about the “weight loss at the study end-point” value [3] of the same molecule?
The value was 3%.

What about the “Num Positive per mm^2 (IHC)” value ([4]; Females) of the same molecule?
The value was 5.547 per mm^2 and 9.942 per mm^2 and 13.6 per mm^2 and 13.27 per mm^2 and 7.069 per mm^2.

And the “Positive % (IHC)” value ([4]; Females)?
The value was 0.0549% and 0.0981% and 0.1335% and 0.1309% and 0.07%.

What about the “Num Positive per mm^2 (IHC)” value ([4]; Males) of the same molecule?
Its value is 19.22 per mm^2 and 9.103 per mm^2 and 13.04 per mm^2 and 20.75 per mm^2 and 10.41 per mm^2.

And the “Positive % (IHC)” value ([4]; Males)?
The value was 0.1899% and 0.0899% and 0.1288% and 0.204% and 0.1028%.

What about the “Brain No. Positive (IHC detections)” value [4, 5] of the same molecule?
The value was 113 and 131 and 205 and 255 and 133 and 201 and 429346 and 137295 and 271623 and 125.

And the “Brain No. Positive per mm^2” value [4, 5]?
Its value is 2.79 per mm^2 and 3.006 per mm^2 and 3.517 per mm^2 and 4.198 per mm^2 and 3.156 per mm^2 and 4.077 per mm^2 and 7967.3 per mm^2 and 2771 per mm^2 and 5985.4 per mm^2 and 3.495 per mm^2.

And the “Brain Positive %” value [4, 5]?
Its value is 0.0277% and 0.0298% and 0.035% and 0.0417% and 0.0314% and 0.0404% and 79.52% and 27.59% and 59.16% and 0.0347%.

What about the “Lung No. Positive (IHC detections)” value [4, 5] of the same molecule?
Its value is 192 and 131 and 152 and 95 and 269 and 3067 and 1648 and 28511 and 272.

What about the “Lung No. Positive per mm^2” value [4, 5] of the same molecule?
The value was 6.545 per mm^2 and 5.06 per mm^2 and 8.682 per mm^2 and 7.096 per mm^2 and 3.624 per mm^2 and 7.345 per mm^2 and 133.68 per mm^2 and 86.7 per mm^2 and 861.5 per mm^2 and 8.911 per mm^2.
